These results are taken from US6566587B1, “Mutated 5-enolpyruvylshikimate-3-phosphate synthase, gene coding for said protein and transformed plants containing said gene” (priority 1995, dated 2003).

In assay [1] the test system is BMS (Black Mexican Sweet) maize cells not bombarded. The assay is described as follows: Growth of maize cells on medium containing herbicide. The format is cell-based. The following applies: 2 mM in medium. On the procedure:
(§1) BMS (Black Mexican Sweet) maize cells in an exponential growth phase are bombarded with the construction pRPA-RD-130 according to the principle and the protocol described by Klein et al. 1987 (Klein T. M., Wolf E. D., Wu R. and Sandford J. C. (1987): High velocity microprojectiles for delivering nucleic acids into living cells, NATURE Vol. 327 pp. 70-73).
(§2) Two days after bomardment, the cells are transferred to the same medium containing 2 mM N-(phosphonomethyl)glycine.

For assay [2], the system named is BMS (Black Mexican Sweet) maize cells bombarded with the construction pRPA-RD-130. Kind of assay: Selection of transformed maize cells on medium containing herbicide. The format is cell-based. The note with it: 2 mM in medium, 8 weeks of selection. On the procedure: as §1, §2
In assay [3] the target is T1, maize EPSPS mutant Ile102 (Thr 102→Ile) (Zea mays, UniProt O24566, T102I).
T1 sequence (O24566 1-444 T102I): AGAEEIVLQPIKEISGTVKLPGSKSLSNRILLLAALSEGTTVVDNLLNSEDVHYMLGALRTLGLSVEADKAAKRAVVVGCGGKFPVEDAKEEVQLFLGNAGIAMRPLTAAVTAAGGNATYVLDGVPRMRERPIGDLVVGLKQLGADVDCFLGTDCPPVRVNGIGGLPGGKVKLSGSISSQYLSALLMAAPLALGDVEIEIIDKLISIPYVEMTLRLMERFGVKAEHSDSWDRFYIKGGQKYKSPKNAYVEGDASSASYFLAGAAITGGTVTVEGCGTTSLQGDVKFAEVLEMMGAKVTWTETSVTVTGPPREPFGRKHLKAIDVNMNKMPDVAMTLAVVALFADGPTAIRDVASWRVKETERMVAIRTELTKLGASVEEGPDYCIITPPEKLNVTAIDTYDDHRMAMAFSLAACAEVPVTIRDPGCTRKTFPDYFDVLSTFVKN
Kind of assay: In vitro EPSP synthase activity, inhibition by glyphosate (phosphate liberated). The format is biochemical. The note with it: 10 minutes at 37° C., pH 5.6, 1 mM phosphoenolpyruvate. On the procedure: (§3) 2.a: Extraction of EPSP synthase The different EPSP synthase genes are introduced in the form of an NcoI-HindIII cassette into the plasmid vector pTro99a (Pharmacia, ref: 27-5007-01) cut with NcoI and HindIII. Recombinant E. coli DH10B bacteria overexpressing the different EPSP synthases are sonicated in 40 ml of buffer per 10 g of pelleted cells, and washed with this same buffer (200 mM Tris-HCl pH 7.8, 50 mM mercaptoethanol, 5 mM EDTA and 1 mM PMSF), to which 1 g of polyvinylpyrrolidone is added. The suspension is stirred for 15 minutes at 4° C. and then centrifuged for 20 minutes at 27,000 g and 4° C.
(§4) Ammonium sulphate is added to the supernatant to bring the solution to 40% saturation with respect to ammonium sulphate. The mixture is centrifuged for 20 minutes at 27,000 g and 4° C. Ammonium sulphate is added to the new supernatant to bring the solution to 70% saturation with respect to ammonium sulphate. The mixture is centrifuged for 30 minutes at 27,000 g and 4° C. The EPSP synthase present in this protein pellet is taken up in 1 ml of buffer (20 mM Tris-HCl pH 7.8 and 50 mM mercaptoethanol). This solution is dialysed overnight against two liters of this same buffer at 4° C.
(§5) The activity of each enzyme, as well as its glyphosate resistance, is measured in vitro over 10 minutes at 37° C. in the following reaction mixture: 100 mM maleic acid pH 5.6, 1 mM phosphoenolpyruvate, 3 mM shikimate 3-phosphate (prepared according to Knowles P. R. and Sprinson D. B. 1970. Methods in Enzymol 17A, 351-352 from Aerobacter aerogenes strain ATCC 25597) and 10 mM potassium fluoride. The enzyme extract is added at the last moment after the addition of glyphosate, the final concentration of which varies from 0 to 20 mM.
(§6) The activity is measured by assaying the phosphate liberated according to the technique of Tausky H. A. and Shorr E. 1953. J. Biol. Chem. 202, 675-685.

Assay [4] deals with maize EPSPS mutant Ser106 (Pro 106→Ser). The assay is described as above. In kind it is biochemical. The following applies: glyphosate 0.12 mM; 10 minutes at 37° C., pH 5.6, 1 mM phosphoenolpyruvate. On the procedure:
as §3, §4, §5, §6

Assay [5] deals with maize EPSPS mutant Ala101/Ile102 (Gly 101→Ala and Thr 102→Ile). The description is as above. In kind it is biochemical. On the procedure: as §3, §4, §5, §6
Assay [6] concerns maize EPSPS mutant Ala. The assay is described as above. The format is biochemical. On the procedure:
as §3, §4, §5, §6

Assay [7] concerns wild-type (WT) maize EPSPS. The assay is described as above. The format is biochemical. The following applies: glyphosate 0.12 mM; 10 minutes at 37° C., pH 5.6, 1 mM phosphoenolpyruvate. On the procedure:
as §3, §4, §5, §6

Assay [8] concerns maize EPSPS mutant Ile102/Ser106 (Thr 102→Ile and Pro 106→Ser). Described as above. In kind it is biochemical. On the procedure: as §3, §4, §5, §6
Where [9] appears, read: glyphosate concentrations up to 10 mM.

On to `O=C(O)CNCP(=O)(O)O` [glyphosate, N-(phosphonomethyl)glycine], for which the “cell growth on medium containing herbicide” value in assay [1] was “blocked by the herbicide and do not develop”. Further, in assay [2], the “callus development on selection medium” value is “calluses which develop”. Also, in assay [3] (read-out: glyphosate concentration producing a 50% inhibition), the IC50 worked out at 1200 µM. Moreover, the “inhibition of enzyme activity” value is on record as “little or no inhibition” in assay [3] (glyphosate 0.12 mM); 50% in assay [4]; “little or no inhibition” in assay [5] (glyphosate 0.12 mM); “still not being inhibited” in assay [5] (glyphosate 1.2 mM); “not inhibited” in assay [5] (setting [9]); “still not being inhibited” in assay [6] (glyphosate 1.2 mM). Besides, the “inhibition of enzyme activity” value was “not inhibited” in assay [6] (setting [9]); 85% in assay [7]; “little or no inhibition” in assay [8] (glyphosate 0.12 mM); “still not being inhibited” in assay [8] (glyphosate 1.2 mM); “not reduced” in assay [8] (glyphosate 20 mM).
